Measurements reported in the kinase profiling compilation of Christmann-Franck et al. (2016).

Columns and labels:
Test in all cases: radiometric filter-binding kinase assay, Kinase HotSpot
Settings in all cases: compound 0.5 µM; ATP 10 µM
STK33 (human) = STK33 (human) (UniProt Q9BYT3)
MAP3K14 (human) = MAP3K14 (human) (UniProt Q99558)
TAOK3 (human) = TAOK3 (human) (UniProt Q9H2K8)
PRKX (human) = PRKX (human) (UniProt P51817)
PAK3 (human) = PAK3 (human) (UniProt O75914)
STK25 (human) = STK25 (human) (UniProt O00506)
GRK6 (human) = GRK6 (human) (UniProt P43250)
CAMK2G (human) = CAMK2G (human) (UniProt Q13555)
LIMK1 (human) = LIMK1 (human) (UniProt P53667)
MLTK (human) = MLTK (human) (UniProt Q9NYL2)
MARK2 (human) = MARK2 (human) (UniProt Q7KZI7)
MAP4K5 (human) = MAP4K5 (human) (UniProt Q9Y4K4)
DDR2 (human) = DDR2 (human) (UniProt Q16832)
DDR2 (human), sequence (Q16832 whole entry, looked up): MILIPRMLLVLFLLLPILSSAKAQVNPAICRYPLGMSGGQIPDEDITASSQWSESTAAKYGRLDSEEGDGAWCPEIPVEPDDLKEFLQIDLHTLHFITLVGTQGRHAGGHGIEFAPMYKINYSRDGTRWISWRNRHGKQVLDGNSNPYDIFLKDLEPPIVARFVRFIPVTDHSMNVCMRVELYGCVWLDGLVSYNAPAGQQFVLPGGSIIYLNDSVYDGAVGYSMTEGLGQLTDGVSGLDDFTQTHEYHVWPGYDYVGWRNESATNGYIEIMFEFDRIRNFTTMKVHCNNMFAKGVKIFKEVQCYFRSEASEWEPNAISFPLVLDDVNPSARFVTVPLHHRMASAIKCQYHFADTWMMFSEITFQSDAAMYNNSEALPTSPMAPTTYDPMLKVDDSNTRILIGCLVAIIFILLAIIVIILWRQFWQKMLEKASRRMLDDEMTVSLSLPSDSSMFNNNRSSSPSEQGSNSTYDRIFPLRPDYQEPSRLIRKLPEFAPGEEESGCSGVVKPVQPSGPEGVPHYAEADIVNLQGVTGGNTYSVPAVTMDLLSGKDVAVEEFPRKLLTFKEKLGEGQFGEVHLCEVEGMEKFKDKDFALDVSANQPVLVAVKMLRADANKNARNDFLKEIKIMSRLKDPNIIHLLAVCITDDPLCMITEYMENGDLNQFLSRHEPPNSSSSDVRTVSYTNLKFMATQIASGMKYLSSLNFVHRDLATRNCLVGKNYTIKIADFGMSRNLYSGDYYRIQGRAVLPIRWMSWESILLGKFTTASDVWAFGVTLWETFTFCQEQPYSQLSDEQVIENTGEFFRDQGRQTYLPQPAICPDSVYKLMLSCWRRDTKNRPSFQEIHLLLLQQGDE

CLK4 (human) = CLK4 (human) (UniProt Q9HAZ1)
TAOK2 (human) = TAOK2 (human) (UniProt Q9UL54)
NUAK2 (human) = NUAK2 (human) (UniProt Q9H093)
MAP3K8 (human) = MAP3K8 (human) (UniProt P41279)
IKBKB (human) = IKBKB (human) (UniProt O14920)
IKBKB (human), sequence (O14920 whole entry, looked up): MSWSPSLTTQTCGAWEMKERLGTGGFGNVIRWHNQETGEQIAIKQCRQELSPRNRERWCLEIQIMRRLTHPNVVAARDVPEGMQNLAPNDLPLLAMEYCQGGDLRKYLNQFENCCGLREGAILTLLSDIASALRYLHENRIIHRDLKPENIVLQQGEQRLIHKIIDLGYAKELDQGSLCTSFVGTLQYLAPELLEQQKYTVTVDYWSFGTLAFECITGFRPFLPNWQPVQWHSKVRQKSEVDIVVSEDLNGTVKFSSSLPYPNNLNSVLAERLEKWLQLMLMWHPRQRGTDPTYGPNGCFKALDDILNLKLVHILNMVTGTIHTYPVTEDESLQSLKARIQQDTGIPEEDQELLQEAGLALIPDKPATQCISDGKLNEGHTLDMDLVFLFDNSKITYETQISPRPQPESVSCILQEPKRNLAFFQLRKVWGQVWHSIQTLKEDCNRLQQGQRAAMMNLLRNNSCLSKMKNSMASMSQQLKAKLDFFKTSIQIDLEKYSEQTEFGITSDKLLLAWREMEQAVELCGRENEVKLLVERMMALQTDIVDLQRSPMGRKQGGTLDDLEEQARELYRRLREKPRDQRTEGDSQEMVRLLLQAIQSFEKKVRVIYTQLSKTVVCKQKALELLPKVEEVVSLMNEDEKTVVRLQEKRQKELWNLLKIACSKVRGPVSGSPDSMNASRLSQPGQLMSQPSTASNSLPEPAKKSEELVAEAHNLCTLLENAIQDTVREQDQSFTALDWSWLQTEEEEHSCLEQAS

DYRK1A (human) = DYRK1A (human) (UniProt Q13627)
MAP3K3 (human) = MAP3K3 (human) (UniProt Q99759)
PRKD1 (human) = PRKD1 (human) (UniProt Q15139)
PRKD1 (human), sequence (Q15139 whole entry, looked up): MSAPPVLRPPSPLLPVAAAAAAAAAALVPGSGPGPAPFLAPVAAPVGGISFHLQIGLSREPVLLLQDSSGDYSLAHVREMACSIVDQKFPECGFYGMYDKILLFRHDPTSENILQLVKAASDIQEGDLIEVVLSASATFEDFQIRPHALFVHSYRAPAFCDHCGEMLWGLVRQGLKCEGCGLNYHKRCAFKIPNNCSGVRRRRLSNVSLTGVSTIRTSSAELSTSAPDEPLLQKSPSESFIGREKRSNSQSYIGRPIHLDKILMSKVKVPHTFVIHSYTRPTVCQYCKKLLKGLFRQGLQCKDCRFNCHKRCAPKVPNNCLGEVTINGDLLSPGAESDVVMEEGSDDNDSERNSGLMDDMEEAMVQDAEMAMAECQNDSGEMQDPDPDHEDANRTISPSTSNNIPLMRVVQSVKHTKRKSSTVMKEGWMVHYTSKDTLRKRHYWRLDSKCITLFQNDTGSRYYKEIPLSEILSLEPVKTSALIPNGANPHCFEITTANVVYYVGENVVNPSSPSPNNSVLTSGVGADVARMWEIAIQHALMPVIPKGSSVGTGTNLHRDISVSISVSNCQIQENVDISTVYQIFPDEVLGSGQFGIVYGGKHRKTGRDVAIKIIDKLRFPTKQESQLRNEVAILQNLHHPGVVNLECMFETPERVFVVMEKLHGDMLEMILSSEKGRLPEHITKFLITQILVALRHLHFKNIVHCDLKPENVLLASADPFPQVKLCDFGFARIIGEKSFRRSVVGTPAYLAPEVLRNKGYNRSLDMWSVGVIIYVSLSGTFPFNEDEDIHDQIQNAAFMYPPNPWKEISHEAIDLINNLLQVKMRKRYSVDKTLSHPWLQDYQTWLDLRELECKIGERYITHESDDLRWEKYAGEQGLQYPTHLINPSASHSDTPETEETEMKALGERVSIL

INSRR (human) = INSRR (human) (UniProt P14616)
CAMK2B (human) = CAMK2B (human) (UniProt Q13554)
CDK7 CCNH MNAT1 (human) = CDK7 CCNH MNAT1 (human) (UniProt P50613+P51948+P51946)
CDK7 CCNH MNAT1 (human), sequence (P50613 whole entry, looked up): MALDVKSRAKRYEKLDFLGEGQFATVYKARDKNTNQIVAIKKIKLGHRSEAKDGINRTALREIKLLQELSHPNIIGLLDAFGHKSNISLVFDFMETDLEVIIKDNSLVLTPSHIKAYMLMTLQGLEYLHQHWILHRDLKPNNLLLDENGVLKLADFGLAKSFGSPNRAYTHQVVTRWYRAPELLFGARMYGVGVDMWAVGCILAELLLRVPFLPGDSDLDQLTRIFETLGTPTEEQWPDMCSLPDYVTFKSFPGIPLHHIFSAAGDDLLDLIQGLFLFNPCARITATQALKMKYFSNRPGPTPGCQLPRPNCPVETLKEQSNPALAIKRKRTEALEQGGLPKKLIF
CDK7 CCNH MNAT1 (human), sequence (P51946 whole entry, looked up): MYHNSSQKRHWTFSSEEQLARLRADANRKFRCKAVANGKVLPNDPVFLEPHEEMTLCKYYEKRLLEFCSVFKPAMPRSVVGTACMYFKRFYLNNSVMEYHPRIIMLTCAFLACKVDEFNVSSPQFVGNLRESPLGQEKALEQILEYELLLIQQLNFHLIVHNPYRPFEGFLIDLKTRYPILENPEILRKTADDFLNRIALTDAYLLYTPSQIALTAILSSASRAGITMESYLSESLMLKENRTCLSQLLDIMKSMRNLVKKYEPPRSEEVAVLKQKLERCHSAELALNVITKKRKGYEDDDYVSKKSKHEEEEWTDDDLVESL
CDK7 CCNH MNAT1 (human), sequence (P51948 whole entry, looked up): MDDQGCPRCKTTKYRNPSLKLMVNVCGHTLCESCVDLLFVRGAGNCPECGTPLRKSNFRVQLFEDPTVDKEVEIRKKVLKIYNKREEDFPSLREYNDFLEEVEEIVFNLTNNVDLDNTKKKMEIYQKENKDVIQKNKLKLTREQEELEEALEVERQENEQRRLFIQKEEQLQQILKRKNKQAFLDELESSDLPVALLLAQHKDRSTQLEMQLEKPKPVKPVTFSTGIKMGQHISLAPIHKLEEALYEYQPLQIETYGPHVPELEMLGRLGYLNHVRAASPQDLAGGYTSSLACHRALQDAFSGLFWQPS

TAOK1 (human) = TAOK1 (human) (UniProt Q7L7X3)
CSNK1G1 (human) = CSNK1G1 (human) (UniProt Q9HCP0)
SRPK3 (human) = SRPK3 (human) (UniProt Q9UPE1)
MYLK2 (human) = MYLK2 (human) (UniProt Q9H1R3)
MYLK2 (human), sequence (Q9H1R3 whole entry, looked up): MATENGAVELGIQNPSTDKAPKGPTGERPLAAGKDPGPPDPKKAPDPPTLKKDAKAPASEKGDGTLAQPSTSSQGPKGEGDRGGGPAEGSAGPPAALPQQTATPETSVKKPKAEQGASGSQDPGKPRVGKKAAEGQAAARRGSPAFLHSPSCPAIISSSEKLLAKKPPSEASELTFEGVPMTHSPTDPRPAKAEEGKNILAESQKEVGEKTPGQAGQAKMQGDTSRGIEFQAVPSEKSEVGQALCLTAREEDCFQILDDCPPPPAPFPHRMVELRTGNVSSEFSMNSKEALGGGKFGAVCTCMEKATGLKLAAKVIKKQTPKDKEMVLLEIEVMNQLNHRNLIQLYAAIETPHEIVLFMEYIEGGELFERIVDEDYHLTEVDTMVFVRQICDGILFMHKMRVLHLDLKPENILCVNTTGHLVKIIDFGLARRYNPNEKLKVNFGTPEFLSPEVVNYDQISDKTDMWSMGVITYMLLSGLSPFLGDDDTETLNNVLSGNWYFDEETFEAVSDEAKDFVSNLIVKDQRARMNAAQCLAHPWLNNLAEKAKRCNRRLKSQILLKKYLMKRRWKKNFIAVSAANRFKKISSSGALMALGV

ADRBK2 (human) = ADRBK2 (human) (UniProt P35626)
NTRK2 (human) = NTRK2 (human) (UniProt Q16620)
LRRK2 (human) = LRRK2 (human) (UniProt Q5S007)
MAPK14 (human) = MAPK14 (human) (UniProt Q16539)
MAPK14 (human), sequence (Q16539 whole entry, looked up): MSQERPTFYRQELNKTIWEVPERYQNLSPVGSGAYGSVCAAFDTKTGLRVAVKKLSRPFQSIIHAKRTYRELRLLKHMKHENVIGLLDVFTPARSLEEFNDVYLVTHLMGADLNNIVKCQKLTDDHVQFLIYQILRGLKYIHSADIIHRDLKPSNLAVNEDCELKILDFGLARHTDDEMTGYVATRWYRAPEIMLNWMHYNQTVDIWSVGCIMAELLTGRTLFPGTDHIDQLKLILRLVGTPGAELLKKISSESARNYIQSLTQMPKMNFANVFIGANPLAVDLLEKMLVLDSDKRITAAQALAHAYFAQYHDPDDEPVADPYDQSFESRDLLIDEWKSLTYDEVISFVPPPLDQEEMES

EPHA1 (human) = EPHA1 (human) (UniProt P21709)
NUAK1 (human) = NUAK1 (human) (UniProt O60285)
AKT3 (human) = AKT3 (human) (UniProt Q9Y243)
PRKCH (human) = PRKCH (human) (UniProt P24723)
STK16 (human) = STK16 (human) (UniProt O75716)
SGK2 (human) = SGK2 (human) (UniProt Q9HBY8)
RPS6KA4 KD2 (human) = RPS6KA4 KD2 (human) (UniProt O75676)
DAPK3 (human) = DAPK3 (human) (UniProt O43293)
PRKACA (human) = PRKACA (human) (UniProt P17612)
MKNK2 (human) = MKNK2 (human) (UniProt Q9HBH9)

PAK3 (human), sequence (O75914 whole entry, looked up): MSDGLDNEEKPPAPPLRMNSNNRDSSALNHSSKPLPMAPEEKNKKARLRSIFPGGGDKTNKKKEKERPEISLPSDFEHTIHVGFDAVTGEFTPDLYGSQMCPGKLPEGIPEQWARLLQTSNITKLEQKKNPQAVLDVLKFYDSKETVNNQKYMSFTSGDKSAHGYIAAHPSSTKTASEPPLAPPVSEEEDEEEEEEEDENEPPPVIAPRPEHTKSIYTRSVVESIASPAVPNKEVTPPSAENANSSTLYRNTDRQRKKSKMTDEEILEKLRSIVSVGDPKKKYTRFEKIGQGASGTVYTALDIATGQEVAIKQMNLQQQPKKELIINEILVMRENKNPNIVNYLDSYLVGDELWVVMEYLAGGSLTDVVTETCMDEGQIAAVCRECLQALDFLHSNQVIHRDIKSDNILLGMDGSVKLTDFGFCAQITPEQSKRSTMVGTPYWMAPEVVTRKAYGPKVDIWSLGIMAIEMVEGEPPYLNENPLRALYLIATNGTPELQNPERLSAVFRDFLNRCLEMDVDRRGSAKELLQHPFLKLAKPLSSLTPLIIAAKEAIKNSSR

O=C(Nc1cccc(Nc2cc(Nc3cccc(C(F)(F)F)c3)ncn2)c1)C1CC1
residual activity (STK33 (human)): 105%
residual activity (MAP3K14 (human)): 77.9%
residual activity (TAOK3 (human)): 98.7%
residual activity (PRKX (human)): 107%
residual activity (PAK3 (human)): 101%
residual activity (STK25 (human)): 97.4%
residual activity (GRK6 (human)): 98.3%
residual activity (CAMK2G (human)): 96.1%
residual activity (LIMK1 (human)): 95.9%
residual activity (MLTK (human)): 97.1%
residual activity (MARK2 (human)): 101%
residual activity (MAP4K5 (human)): 96.1%
residual activity (DDR2 (human)): 106%
residual activity (CLK4 (human)): 97.3%
residual activity (TAOK2 (human)): 103%
residual activity (NUAK2 (human)): 103%
residual activity (MAP3K8 (human)): 98.4%
residual activity (IKBKB (human)): 100%
residual activity (DYRK1A (human)): 104%
residual activity (MAP3K3 (human)): 95.2%
residual activity (PRKD1 (human)): 100%
residual activity (INSRR (human)): 101%
residual activity (CAMK2B (human)): 105%
residual activity (CDK7 CCNH MNAT1 (human)): 97.6%
residual activity (TAOK1 (human)): 100%
residual activity (CSNK1G1 (human)): 94.8%
residual activity (SRPK3 (human)): 103%
residual activity (MYLK2 (human)): 98.9%
residual activity (ADRBK2 (human)): 103%
residual activity (NTRK2 (human)): 100%
residual activity (LRRK2 (human)): 95.6%
residual activity (MAPK14 (human)): 98.2%
residual activity (EPHA1 (human)): 92.9%
residual activity (NUAK1 (human)): 102%
residual activity (AKT3 (human)): 99.4%
residual activity (PRKCH (human)): 88.2%
residual activity (STK16 (human)): 107%
residual activity (SGK2 (human)): 99%
residual activity (RPS6KA4 KD2 (human)): 100%
residual activity (DAPK3 (human)): 99.8%
residual activity (PRKACA (human)): 102%
residual activity (MKNK2 (human)): 83.8%

COc1ccc(CNC(=O)Nc2ncc([N+](=O)[O-])s2)cc1
residual activity (STK33 (human)): 100%
residual activity (MAP3K14 (human)): 84.2%
residual activity (TAOK3 (human)): 98.5%
residual activity (PRKX (human)): 72.1%
residual activity (PAK3 (human)): 94.6%
residual activity (STK25 (human)): 98.6%
residual activity (GRK6 (human)): 99.6%
residual activity (CAMK2G (human)): 102%
residual activity (LIMK1 (human)): 96%
residual activity (MLTK (human)): 101%
residual activity (MARK2 (human)): 106%
residual activity (MAP4K5 (human)): 93.9%
residual activity (DDR2 (human)): 100%
residual activity (CLK4 (human)): 92.8%
residual activity (TAOK2 (human)): 98.5%
residual activity (NUAK2 (human)): 89.9%
residual activity (MAP3K8 (human)): 96.2%
residual activity (IKBKB (human)): 94.9%
residual activity (DYRK1A (human)): 95.6%
residual activity (MAP3K3 (human)): 87.6%
residual activity (PRKD1 (human)): 104%
residual activity (INSRR (human)): 99.2%
residual activity (CAMK2B (human)): 103%
residual activity (CDK7 CCNH MNAT1 (human)): 94.8%
residual activity (TAOK1 (human)): 101%
residual activity (CSNK1G1 (human)): 97.8%
residual activity (SRPK3 (human)): 100%
residual activity (MYLK2 (human)): 98.5%
residual activity (ADRBK2 (human)): 112%
residual activity (NTRK2 (human)): 85.6%
residual activity (LRRK2 (human)): 87.7%
residual activity (MAPK14 (human)): 104%
residual activity (EPHA1 (human)): 107%
residual activity (NUAK1 (human)): 99.7%
residual activity (AKT3 (human)): 95.9%
residual activity (PRKCH (human)): 64.1%
residual activity (STK16 (human)): 99.9%
residual activity (SGK2 (human)): 99.5%
residual activity (RPS6KA4 KD2 (human)): 101%
residual activity (DAPK3 (human)): 106%
residual activity (PRKACA (human)): 96.9%
residual activity (MKNK2 (human)): 95.7%

CCN(CC)CCCCN1c2ccccc2Oc2ccc(Cl)cc21
residual activity (STK33 (human)): 89.9%
residual activity (MAP3K14 (human)): 95.6%
residual activity (TAOK3 (human)): 110%
residual activity (PRKX (human)): 103%
residual activity (PAK3 (human)): 116%
residual activity (STK25 (human)): 92.6%
residual activity (GRK6 (human)): 88.4%
residual activity (CAMK2G (human)): 104%
residual activity (LIMK1 (human)): 94.3%
residual activity (MLTK (human)): 94.4%
residual activity (MARK2 (human)): 86.1%
residual activity (MAP4K5 (human)): 93.4%
residual activity (DDR2 (human)): 99.4%
residual activity (CLK4 (human)): 97%
residual activity (TAOK2 (human)): 95.3%
residual activity (NUAK2 (human)): 90.9%
residual activity (MAP3K8 (human)): 94.7%
residual activity (IKBKB (human)): 96.6%
residual activity (DYRK1A (human)): 104%
residual activity (MAP3K3 (human)): 103%
residual activity (PRKD1 (human)): 101%
residual activity (INSRR (human)): 102%
residual activity (CAMK2B (human)): 107%
residual activity (CDK7 CCNH MNAT1 (human)): 99%
residual activity (TAOK1 (human)): 97.9%
residual activity (CSNK1G1 (human)): 104%
residual activity (SRPK3 (human)): 104%
residual activity (MYLK2 (human)): 104%
residual activity (ADRBK2 (human)): 87.5%
residual activity (NTRK2 (human)): 102%
residual activity (LRRK2 (human)): 115%
residual activity (MAPK14 (human)): 95.8%
residual activity (EPHA1 (human)): 90.5%
residual activity (NUAK1 (human)): 90.7%
residual activity (AKT3 (human)): 103%
residual activity (PRKCH (human)): 108%
residual activity (STK16 (human)): 95.2%
residual activity (SGK2 (human)): 105%
residual activity (RPS6KA4 KD2 (human)): 80.8%
residual activity (DAPK3 (human)): 106%
residual activity (PRKACA (human)): 98.4%
residual activity (MKNK2 (human)): 111%

Nc1nnc2[nH]c3ccccc3nc1-2
residual activity (STK33 (human)): 98.7%
residual activity (MAP3K14 (human)): 99.2%
residual activity (TAOK3 (human)): 97.1%
residual activity (PRKX (human)): 102%
residual activity (PAK3 (human)): 98.3%
residual activity (STK25 (human)): 99.9%
residual activity (GRK6 (human)): 104%
residual activity (CAMK2G (human)): 108%
residual activity (LIMK1 (human)): 105%
residual activity (MLTK (human)): 96.3%
residual activity (MARK2 (human)): 110%
residual activity (MAP4K5 (human)): 96.8%
residual activity (DDR2 (human)): 94.6%
residual activity (CLK4 (human)): 86.9%
residual activity (TAOK2 (human)): 103%
residual activity (NUAK2 (human)): 96.3%
residual activity (MAP3K8 (human)): 81.3%
residual activity (IKBKB (human)): 102%
residual activity (DYRK1A (human)): 95.1%
residual activity (MAP3K3 (human)): 103%
residual activity (PRKD1 (human)): 94.9%
residual activity (INSRR (human)): 89.3%
residual activity (CAMK2B (human)): 90%
residual activity (CDK7 CCNH MNAT1 (human)): 98%
residual activity (TAOK1 (human)): 101%
residual activity (CSNK1G1 (human)): 99%
residual activity (SRPK3 (human)): 95.6%
residual activity (MYLK2 (human)): 90.5%
residual activity (ADRBK2 (human)): 92.4%
residual activity (NTRK2 (human)): 96.4%
residual activity (LRRK2 (human)): 90.5%
residual activity (MAPK14 (human)): 96.6%
residual activity (EPHA1 (human)): 100%
residual activity (NUAK1 (human)): 86.3%
residual activity (AKT3 (human)): 95.3%
residual activity (PRKCH (human)): 87.9%
residual activity (STK16 (human)): 91.9%
residual activity (SGK2 (human)): 90.3%
residual activity (RPS6KA4 KD2 (human)): 79%
residual activity (DAPK3 (human)): 98.2%
residual activity (PRKACA (human)): 102%
residual activity (MKNK2 (human)): 89.1%
